{"source": "patent US9221853B2", "about": "“Glyphosate dimethylamine salt crystal, preparation method and use thereof” (ZHEJIANG WYNCA CHEMICAL INDUSTRY GROUP CO., LTD., priority 2009, dated 2015)", "key": {"[1]": {"test_system": "perennial weeds: Alligator Alternanthera Herb (Alternanthera philoxeroides)", "conditions": "CD Observation Method visual score (2.0-10.0); 60 g/mou glyphosate, field spray; observed 2.5, 5, 7 and 11 days after application", "description": "(§1) A CD Observation Method was used to make records.\n(§2) Assessment Criteria of the CD Observation Method\n(§3) A visual method was used with the following criteria: • 2.0 mild poisoning symptom in a spot of leaves • 4.0 a few leaves lost green or turned yellow while the plant growth was substantially normal • 6.0 leaves lost green or turned yellow or some leaves withered, while the stalk was nearly normal, and was yet able to grow slowly • 8.0 caulicle or inflorescence and rachis of leaves withered; most of stalk turned yellow or lost green mildly and was unable to grow normally; the plant died locally • 10.0 the whole plant died"}, "[2]": {"test_system": "annual weeds: Common Crabgrass (Digitaria sanguinalis), Goosegrass (Eleusine indica), Bitter Fleabane (Erigeron acer)", "conditions": "CD Observation Method visual score (2.0-10.0); 60 g/mou glyphosate, field spray; observed 2.5, 5, 7 and 11 days after application", "description": "as §1, §2, §3"}, "[3]": {"test_system": "weeds", "conditions": "field plot 2 m×2.5 m, spray, effective ingredient 60 g/mou (based on glyphosate) diluted by water to 30 l/mou", "protocol": "A sample was taken in an effective ingredient amount of 60 g/mou (based on glyphosate), and was diluted by water to 30 l/mou. The resulting diluted liquor was evenly sprayed into a test field plot with an area of 2 m×2.5 m, repeated twice. […] A CD Observation Method was used to make records."}}, "note": "Structures can show the parent of a compound that is named as a salt."}
{"molecule": "O=C(O)CNCP(=O)(O)O", "note": "[dimethylamine salt of N-phosphonomethyl glycine]", "values": [{"measurement": "Control on perennial weeds", "setting": "[1]", "value": 9.4}, {"measurement": "Control on annual weeds", "setting": "[2]", "value": 9.6}, {"measurement": "Days for weeds to die", "setting": "[3]", "value": "9~11 d"}]}
